# Results published in PubChem BioAssay AID624207 (Sanford-Burnham Center for Chemical Genomics, 2012).
# The source made the active and inactive calls.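 How the source made its calls: active means compounds blocking the phosphatase with IC50 at or below a set limit; inactive means the rest.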
# Molecular target: Tyrosine-protein phosphatase non-receptor type 5 (Homo sapiens) (UniProt P54829)
# Experiment: PTPN5 inhibition measured colorimetrically – biochemical, colorimetric absorbance, orthogonal assay for STEP inhibitor project, dose response (AID 624207)
# Conditions: recombinant STEP, pNPP colorimetric absorbance
# Sequence of Tyrosine-protein phosphatase non-receptor type 5 (Homo sapiens) (P54829 whole entry, looked up): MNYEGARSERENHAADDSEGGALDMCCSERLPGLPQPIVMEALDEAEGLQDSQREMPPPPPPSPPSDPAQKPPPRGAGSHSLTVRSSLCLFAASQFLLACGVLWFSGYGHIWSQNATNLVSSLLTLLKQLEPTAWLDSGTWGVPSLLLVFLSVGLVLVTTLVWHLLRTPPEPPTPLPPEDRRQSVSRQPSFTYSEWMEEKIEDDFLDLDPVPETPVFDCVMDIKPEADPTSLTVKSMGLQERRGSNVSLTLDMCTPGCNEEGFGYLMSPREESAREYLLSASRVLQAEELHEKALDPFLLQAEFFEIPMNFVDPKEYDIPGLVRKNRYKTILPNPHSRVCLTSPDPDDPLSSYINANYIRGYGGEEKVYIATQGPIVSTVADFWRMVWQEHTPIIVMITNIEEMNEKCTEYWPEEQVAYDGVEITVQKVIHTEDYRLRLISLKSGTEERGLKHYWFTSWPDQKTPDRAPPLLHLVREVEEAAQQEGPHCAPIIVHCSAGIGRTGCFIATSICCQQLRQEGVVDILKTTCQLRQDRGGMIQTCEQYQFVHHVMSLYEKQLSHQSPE
row,Compound,IC50
1,O=C(NN=Cc1ccccc1O)c1cccc([N+](=O)[O-])c1,15.8 µM
2,S=C1NC(C23CC4CC(CC(C4)C2)C3)=CC(c2ccc3c(c2)OCO3)N1 (centres undefined),> 80 µM (inactive)
3,CSc1ccc(C=NNc2ccc(S(=O)(=O)Nc3ccccc3C(=O)O)cc2[N+](=O)[O-])cc1,4.99 µM
4,CC1=C(O)C(=O)C(C2=C(O)C(=O)C(C)=C(O)C2=O)=C(O)C1=O,> 80 µM (inactive)
5,S=C1NC2=C(CCCC2=C2SCCS2)C(c2ccccc2)N1 (centres undefined),inactive
6,O=C1C(=O)N(CCCO)C(c2ccc(Br)cc2)/C1=C(\O)c1ccc(Br)cc1 (centres undefined),inactive

# Results, then the molecule that gave them:
row,IC50,Compound
1,> 80 µM (inactive),COc1ccc(OC)c(N2C(=O)[C@@H]3C(c4ccccc4Cl)=NO[C@@H]3C2=O)c1
2,13.6 µM,COc1ccc(/C=N/N=C2/NC(=O)C(CC(=O)O)S2)cc1OCc1ccc(Cl)cc1Cl (centres undefined)
3,> 80 µM (inactive),CCOc1cc(/C=N/N=C2/NC(=O)C(CC(=O)O)S2)ccc1OCc1ccc(Cl)cc1Cl (centres undefined)
